This test deals with ischemia-induced EEG flattening. Nature of the test: Cerebral ischemia by bilateral carotid occlusion, EEG spectral power. It is filed as in vivo, Mongolian gerbils (Meriones unguiculatus). The note with it: 10 mg/kg i.p. 30 min before bilateral carotid occlusion; starting from 1 hour after recirculation. Here is the method:
After implanting EEG electrodes, the gerbils were divided into different groups on the basis of the assigned treatment. Their electroencephalogram (EEG) was recorded for 1 h a day, for three days, to determine the basal total and relative spectral power. The signals were recorded and processed for fast Fourier transform spectral analysis by means of PC software (PowerLab, AD Instruments, Pty, Ltd, Australia). EEG recordings were also made for seven days after ischemia. After basal EEG recordings, each gerbil was again lightly anaesthetised and 10-min. ischemia was induced by bilateral common carotid arteries occlusion. The ischemia was verified qualitatively on paper by the complete flattening of the EEG. A group of animals (sham-operated) underwent the same surgical procedure except that the carotid arteries were not clamped. Compound Id was i.p. administered to the animals at the dose of 10 mg/kg 30 minutes before ischemia induction.

For the molecule `CCCCCCCCCCCCCCO[C@H]1[C@@H](OC)O[C@H](C[N+](C)(C)C2CCCC2)[C@@H](O)[C@@H]1OCCCCCCCCCCCCCC` [Compound Id, methyl 6-deoxy-6-N,N',N"-dimethylcyclopentylammonium-2,3-di-O-tetradecyl-α-D-glucopyranoside], the “ischemia-induced EEG flattening” value is on record as “able to significantly antagonize the ischemia-induced EEG flattening”.

For the origin of these results see patent EP1996603B1, “LIPID A ANTAGONISTS WITH ANTI-SEPTIC SHOCK, ANTI-INFLAMMATORY, ANTI-ISCHEMIA AND ANALGESIC ACTIVITY” (Università Degli Studi Di Milano - Bicocca, priority 2006, dated 2007).
